Like-named read-outs stand apart in the source and are kept apart here.
Columns and labels:
SW579 = assay: OncoPanel cell proliferation assay, SW579; assay type: cell-based, human
Description: (§1) Cells were grown in RPMI 1640, 10% FBS, 2 mM L-alanyl-L-glutamine, 1 mM Na pyruvate, or a special medium. Cells were seeded into 384-well plates and incubated in a humidified atmosphere of 5% CO2 at 37° C. Compounds were added the day following cell seeding. At the same time, a time zero untreated cell plate was generated. After a 3-day incubation period, cells were fixed and stained to allow fluorescence imaging of nuclei. Compounds (1 mM stock solutions) were serially diluted in half-log steps from the highest test concentration ([…]), and assayed over 10 concentrations with a maximum assay concentration of 0.1% DMSO. Automated fluorescence microscopy was carried out using a Molecular Devices ImageXpress Micro XL high-content imager, and images were collected with a 4× objective. 16-bit TIFF images were acquired and analyzed with MetaXpress 5.1.0.41 software.
(§2) Cell proliferation was measured by the fluorescence intensity of an incorporated nuclear dye. The output is referred to as the relative cell count, where the measured nuclear intensity is transformed to percent of control (POC) using the following formula: […]
(§3) Cellular response parameters were calculated using nonlinear regression to a sigmoidal single-site dose response model:
(§4) EC50 is the test compound concentration at the curve inflection point or half the effective response (parameter C of the fitted curve solution). GI50 is the concentration needed to reduce the observed growth by half (midway between the curve maximum and the time zero value). “Cell Count Activity Area” is an estimate of the integrated area above the curve (Barretina, et al. The Cancer Cell Line Encyclopedia enables predictive modelling of anticancer drug sensitivity. Nature 483: 603-607). […] In rare instances, values <0 or >10 may be observed. […] Curve-fitting, calculations, and report generation was performed using a custom data reduction engine and MathIQ based software (AIM).

T24 = assay: OncoPanel cell proliferation assay, T24; assay type: cell-based, human
Description: as §1, §2, §3, §4

U-138MG = assay: OncoPanel cell proliferation assay, U-138MG; assay type: cell-based, human
Description: as §1, §2, §3, §4

CAMA-1 = assay: OncoPanel cell proliferation assay, CAMA-1
Description: (§5) Cells were seeded into 384-well plates and incubated in a humidified atmosphere of 5% CO2 at 37° C. Compounds were added the day following cell seeding. At the same time, a time zero untreated cell plate was generated. After a 3-day incubation period, cells were fixed and stained to allow fluorescence imaging of nuclei. Compounds (1 mM stock solutions) were serially diluted in half-log steps from the highest test concentration (1 micromol), and assayed over 10 concentrations with a maximum assay concentration of 0.1% DMSO. Automated fluorescence microscopy was carried out using a Molecular Devices ImageXpress Micro XL high-content imager, and images were collected with a 4× objective. 16-bit TIFF images were acquired and analyzed with MetaXpress 5.1.0.41 software.
(§6) GI50 is the concentration needed to reduce the observed growth by half (midway between the curve maximum and the time zero value). […] In rare instances, values <0 or >10 may be observed. […] Curve-fitting, calculations, and report generation was performed using a custom data reduction engine and MathIQ based software (AIM).

CHP-212 = assay: OncoPanel cell proliferation assay, CHP-212
Description: as §5, §6

SK-NEP-1 = assay: OncoPanel cell proliferation assay, SK-NEP-1
Description: as §5, §6

For CO[C@H]1C[C@@H]2CC[C@@H](C)[C@@](O)(O2)C(=O)C(=O)N2CCCC[C@H]2C(=O)O[C@H]([C@H](C)C[C@H]2C[C@H]3C[C@@H]2C[C@@H]3O)CC(=O)[C@H](C)/C=C(\C)[C@@H](O)[C@@H](OC)C(=O)[C@H](C)C[C@H](C)/C=C/C=C/C=C/1C [Formula II, C37-[(1R,2S,4R,5S)-5-hyhroxybicyclo[2.2.1]heptane] rapamycin], the “Cell Count Activity Area” value (SW579) was 4.51, the “Relative cell count (%) Mean” value (SW579; 1.00E+00 microM) was 43.1% and the “Relative cell count (%) Mean” value (SW579; 1.00E-01 microM) was 43.4%. The “Relative cell count (%) Mean” value (SW579; 1.00E-02 microM) was 51.1%, the “Relative cell count (%) Mean” value (SW579; 1.00E-03 microM) was 64.1% and the “Relative cell count (%) Mean” value (SW579; 1.01E-04 microM) was 82.8%. For the same compound, the “Relative cell count (%) Mean” value (SW579; 3.16E-01 microM) was 40.8%, the “Relative cell count (%) Mean” value (SW579; 3.17E-02 microM) was 49.9% and the “Relative cell count (%) Mean” value (SW579; 3.17E-03 microM) was 50.2%. The “Relative cell count (%) Mean” value (SW579; 3.18E-04 microM) was 66.2%, the “Relative cell count (%) Mean” value (SW579; 3.18E-05 microM) was 86.0% and the EC50 (SW579; Homo sapiens, read-out: Cell Count EC50) was 0.204 nM. The GI50 (SW579; Homo sapiens, read-out: Cell Count GI50) was 1.06 nM, the IC50 (SW579; Homo sapiens, read-out: Cell Count IC50) was 4.52 nM and the “Cell Count Activity Area” value (T24) was 4.16. For the same compound, the “Relative cell count (%) Mean” value (T24; 1.00E+00 microM) was 36.6%, the “Relative cell count (%) Mean” value (T24; 1.00E-01 microM) was 42.2% and the “Relative cell count (%) Mean” value (T24; 1.00E-02 microM) was 52.8%. For the same compound, the “Relative cell count (%) Mean” value (T24; 1.00E-03 microM) was 61.8%, the “Relative cell count (%) Mean” value (T24; 1.01E-04 microM) was 85.7% and the “Relative cell count (%) Mean” value (T24; 3.16E-01 microM) was 40.8%. For the same compound, the “Relative cell count (%) Mean” value (T24; 3.17E-02 microM) was 48.5%, the “Relative cell count (%) Mean” value (T24; 3.17E-03 microM) was 52.6% and the “Relative cell count (%) Mean” value (T24; 3.18E-04 microM) was 69.8%. For the same compound, the “Relative cell count (%) Mean” value (T24; 3.18E-05 microM) was 93.2%, the EC50 (T24; Homo sapiens, T-24, read-out: Cell Count EC50) was 0.471 nM and the GI50 (T24; Homo sapiens, T-24, read-out: Cell Count GI50) was 3.09 nM. It also gave an IC50 (T24; Homo sapiens, T-24, read-out: Cell Count IC50) of 6.8 nM, an EC50 (U-138MG; Homo sapiens, U138-MG, U-138 MG, CNS, Glioblastoma, summary Table 5, read-out: EC50) of 1.4 nM and an EC50 (U-138MG; Homo sapiens, U138-MG, U-138MG, read-out: Cell Count EC50) of 1.44 nM. The GI50 (U-138MG; Homo sapiens, U138-MG, U-138MG, read-out: Cell Count GI50) was 23 nM, the IC50 (U-138MG; Homo sapiens, U138-MG, U-138MG, read-out: Cell Count IC50) was > 1000 nM and the “Cell Count Activity Area” value (U-138MG; U-138MG) was 2.59. For the same compound, the “Relative cell count (%) Mean” value (U-138MG; U-138MG, 1.00E+00 microM) was 60.4%, the “Relative cell count (%) Mean” value (U-138MG; U-138MG, 1.00E-01 microM) was 67.9% and the “Relative cell count (%) Mean” value (U-138MG; U-138MG, 1.00E-02 microM) was 76.4%. For the same compound, the “Relative cell count (%) Mean” value (U-138MG; U-138MG, 1.00E-03 microM) was 74.8%, the “Relative cell count (%) Mean” value (U-138MG; U-138MG, 1.01E-04 microM) was 87.7% and the “Relative cell count (%) Mean” value (U-138MG; U-138MG, 3.16E-01 microM) was 65.0%. The “Relative cell count (%) Mean” value (U-138MG; U-138MG, 3.17E-02 microM) was 69.1%, the “Relative cell count (%) Mean” value (U-138MG; U-138MG, 3.17E-03 microM) was 73.8% and the “Relative cell count (%) Mean” value (U-138MG; U-138MG, 3.18E-04 microM) was 78.5%. For the same compound, the “Relative cell count (%) Mean” value (U-138MG; U-138MG, 3.18E-05 microM) was 87.8%, the “Cell Count Activity Area” value (CAMA-1; CAMA-1) was 4.22 and the “Relative cell count (%) Mean” value (CAMA-1; CAMA-1, 1.00E+00 microM) was 42.0%. For the same compound, the “Relative cell count (%) Mean” value (CAMA-1; CAMA-1, 1.00E-01 microM) was 45.4%, the “Relative cell count (%) Mean” value (CAMA-1; CAMA-1, 1.00E-02 microM) was 54.6% and the “Relative cell count (%) Mean” value (CAMA-1; CAMA-1, 1.00E-03 microM) was 64.5%. For the same compound, the “Relative cell count (%) Mean” value (CAMA-1; CAMA-1, 1.01E-04 microM) was 98.0%, the “Relative cell count (%) Mean” value (CAMA-1; CAMA-1, 3.16E-01 microM) was 43.0% and the “Relative cell count (%) Mean” value (CAMA-1; CAMA-1, 3.17E-02 microM) was 45.1%. The “Relative cell count (%) Mean” value (CAMA-1; CAMA-1, 3.17E-03 microM) was 55.9%, the “Relative cell count (%) Mean” value (CAMA-1; CAMA-1, 3.18E-04 microM) was 79.7% and the “Relative cell count (%) Mean” value (CAMA-1; CAMA-1, 3.18E-05 microM) was 96.5%. The EC50 (CAMA-1; Homo sapiens, CAMA-1, read-out: Cell Count EC50) was 0.491 nM, the GI50 (CAMA-1; Homo sapiens, CAMA-1, read-out: Cell Count GI50) was 0.647 nM and the IC50 (CAMA-1; Homo sapiens, CAMA-1, read-out: Cell Count IC50) was 4.34 nM. For the same compound, the “Cell Count Activity Area” value (CHP-212; CHP-212) was 3.87, the “Relative cell count (%) Mean” value (CHP-212; CHP-212, 1.00E+00 microM) was 43.7% and the “Relative cell count (%) Mean” value (CHP-212; CHP-212, 1.00E-01 microM) was 47.0%. For the same compound, the “Relative cell count (%) Mean” value (CHP-212; CHP-212, 1.00E-02 microM) was 57.6%, the “Relative cell count (%) Mean” value (CHP-212; CHP-212, 1.00E-03 microM) was 59.5% and the “Relative cell count (%) Mean” value (CHP-212; CHP-212, 1.01E-04 microM) was 82.6%. The “Relative cell count (%) Mean” value (CHP-212; CHP-212, 3.16E-01 microM) was 46.9%, the “Relative cell count (%) Mean” value (CHP-212; CHP-212, 3.17E-02 microM) was 54.5% and the “Relative cell count (%) Mean” value (CHP-212; CHP-212, 3.17E-03 microM) was 59.2%. The “Relative cell count (%) Mean” value (CHP-212; CHP-212, 3.18E-04 microM) was 68.8%, the “Relative cell count (%) Mean” value (CHP-212; CHP-212, 3.18E-05 microM) was 93.4% and the EC50 (CHP-212; Homo sapiens, CHP-212, read-out: Cell Count EC50) was 0.267 nM. The GI50 (CHP-212; Homo sapiens, CHP-212, read-out: Cell Count GI50) was 0.349 nM, the IC50 (CHP-212; Homo sapiens, CHP-212, read-out: Cell Count IC50) was 34 nM and the EC50 (SK-NEP-1; Homo sapiens, SK-NEP-1, read-out: Cell Count EC50) was 2.48 nM. The GI50 (SK-NEP-1; Homo sapiens, SK-NEP-1, read-out: Cell Count GI50) was 3.27 nM, the IC50 (SK-NEP-1; Homo sapiens, SK-NEP-1, read-out: Cell Count IC50) was 18.1 nM and the “Cell Count Activity Area” value (SK-NEP-1; SK-NEP-1) was 3.36. For the same compound, the “Relative cell count (%) Mean” value (SK-NEP-1; SK-NEP-1, 1.00E+00 microM) was 41.8%, the “Relative cell count (%) Mean” value (SK-NEP-1; SK-NEP-1, 1.00E-01 microM) was 45.4% and the “Relative cell count (%) Mean” value (SK-NEP-1; SK-NEP-1, 1.00E-02 microM) was 59.8%. The “Relative cell count (%) Mean” value (SK-NEP-1; SK-NEP-1, 1.00E-03 microM) was 86.5%, the “Relative cell count (%) Mean” value (SK-NEP-1; SK-NEP-1, 1.01E-04 microM) was 106.4% and the “Relative cell count (%) Mean” value (SK-NEP-1; SK-NEP-1, 3.16E-01 microM) was 44.3%. The “Relative cell count (%) Mean” value (SK-NEP-1; SK-NEP-1, 3.17E-02 microM) was 49.3%, the “Relative cell count (%) Mean” value (SK-NEP-1; SK-NEP-1, 3.17E-03 microM) was 67.1% and the “Relative cell count (%) Mean” value (SK-NEP-1; SK-NEP-1, 3.18E-04 microM) was 94.6%. For the same compound, the “Relative cell count (%) Mean” value (SK-NEP-1; SK-NEP-1, 3.18E-05 microM) was 99.0%.
